Laboratory results as given in patent US4360525A, “Dibenzazepine derivatives, pharmaceutical compositions containing them, and methods of use” (Sandoz Ltd., priority 1979, dated 1982).

Experiments:
sleep/wake cycle = sleep/wake cycle in the rat (H. Kleinlogel); assay type: in vivo; conditions: 10 mg/kg p.o.
Protocol: Additionally, the compounds on administration to mice of from about 0.1 to about 10 mg/kg i.p. inhibit the hypermotility induced by 4,α-dimethyl-m-tyramine (H 77/77) in a test carried out according to the principles of J. Buus Lassen, Psychopharmacologia 37, 331-340 (1974). The compounds also increase the sleep phase II in the sleep/wake cycle in the rat carried out according to the principles of H. Kleinlogel et al, European J. Pharmacol. 33, 159-163, 1975, on administration of from […]. Results obtained are e.g. as follows:
Additionally the compounds of the invention are useful as sleep-inducing, sleep-promoting and sleep-prolonging agents, as indicated in standard tests. For example, in one test according to the principles of H. Kleinlogel, European J. Pharmacol. 33, 159-163 (1975) an increase in the sleep phase II and a decrease of the wake phase is observed after administration to rats of from 0.5 to 80 mg/kg p.o. animal body weight of the compounds.

[1] = test system: spontaneous motor activity; test: inhibition of spontaneous motor activity in mice (Caviezel and Baillod); assay type: in vivo; conditions: Mus musculus, po
Protocol: In particular, the compounds of the invention are useful as neuroleptic agents in the treatment of e.g. psychotic disturbances such as schizophrenia, as indicated in standard tests, e.g. by an inhibition of spontaneous motor activity in mice on p.o. administration of from about 1 to about 50 mg/kg animal body weight of the compounds in accordance with the principles of Caviezel and Baillod (Pharm. Acta Helv. (1958), 33, 465-484).

SMILES | Sleep phase II % of control (sleep/wake cycle) | ED50 [1] [mg/kg]
CN1CCN(C2=Nc3cc(Cl)ccc3Nc3ccccc32)CC1 [Clozapine] | 144 % of control | –
CN1CCC(N2Cc3cc(Cl)ccc3Sc3ccccc32)CC1 [Example 1, 2-Chloro-10-(1-methyl-piperidin-4-yl)-10,11-dihydro-dibenzo[b,f][1,4]thiazepine] | 131 % of control | 26
CSc1ccc2c(c1)N(CCC1CCCCN1C)c1ccccc1S2 (stereo not shown) [Thioridazine] | – | 26
